The record followed here is patent publication US11548870B2, “Compounds useful as inhibitors of helios protein” (Bristol-Myers Squibb Company, priority 2019, dated 2023).

The target of one experiment is T1, Helios (Homo sapiens, UniProt Q96SW2+Q9UKS7).
T1 construct: fluorescently labelled antibodies against Helios and Ikaros; endogenous in cells; host or cells: Jurkat cells
Kind of experiment: Helios Cellular Degradation Assay (flow cytometry, Helios-PE antibody staining, 72 h). Type of experiment: cell-based. To be noted: Jurkat cells, 72 h incubation, flow cytometry; for Dmax: Jurkat, read-out: Helios Dmax. The gist of the method:
(§1)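 Flow cytometry of fixed, permeabilized Jurkat cells stained with anti-Helios-PE and anti-Ikaros-Alexa488 (1 h, room temperature) measured remaining protein. Treatment lasted 72 h at 37 °C, 5% CO2, at 80,000 cells/well in RPMI with 10% FBS.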
For orientation: Flow cytometry measures light scatter and fluorescence of single cells or particles in a stream.

Another experiment has as its target T2, Ikaros (Homo sapiens, UniProt Q13422).
T2 construct: fluorescently labelled antibodies against Helios and Ikaros; endogenous in cells; host or cells: Jurkat cells
Kind of experiment: Helios Cellular Degradation Assay, Ikaros readout (flow cytometry, Ikaros-Alexa488 antibody staining, 72 h). Type of experiment: cell-based. Conditions: Jurkat cells, 72 h incubation, flow cytometry; for Dmax: Jurkat, read-out: Ikaros Dmax. The gist of the method:
as §1

One may read the DC50 as the concentration at which degradation of the target reaches its halfway point. For orientation: Dmax means the greatest extent of degradation seen.

T1 sequence (Q9UKS7 whole entry): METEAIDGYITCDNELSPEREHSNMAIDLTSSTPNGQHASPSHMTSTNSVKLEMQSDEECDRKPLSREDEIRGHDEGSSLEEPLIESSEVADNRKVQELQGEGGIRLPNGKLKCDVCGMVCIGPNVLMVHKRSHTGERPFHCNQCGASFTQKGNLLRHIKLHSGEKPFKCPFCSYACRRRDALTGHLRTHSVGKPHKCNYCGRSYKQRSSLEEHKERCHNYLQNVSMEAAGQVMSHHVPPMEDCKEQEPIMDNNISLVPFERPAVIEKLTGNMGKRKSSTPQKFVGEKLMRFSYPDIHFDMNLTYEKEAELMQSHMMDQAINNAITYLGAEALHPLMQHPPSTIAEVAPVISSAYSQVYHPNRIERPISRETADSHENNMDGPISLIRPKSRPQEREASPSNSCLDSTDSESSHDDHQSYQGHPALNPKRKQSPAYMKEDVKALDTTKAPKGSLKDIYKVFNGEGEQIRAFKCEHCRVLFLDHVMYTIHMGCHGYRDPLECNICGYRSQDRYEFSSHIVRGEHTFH
T1 sequence (Q96SW2 whole entry): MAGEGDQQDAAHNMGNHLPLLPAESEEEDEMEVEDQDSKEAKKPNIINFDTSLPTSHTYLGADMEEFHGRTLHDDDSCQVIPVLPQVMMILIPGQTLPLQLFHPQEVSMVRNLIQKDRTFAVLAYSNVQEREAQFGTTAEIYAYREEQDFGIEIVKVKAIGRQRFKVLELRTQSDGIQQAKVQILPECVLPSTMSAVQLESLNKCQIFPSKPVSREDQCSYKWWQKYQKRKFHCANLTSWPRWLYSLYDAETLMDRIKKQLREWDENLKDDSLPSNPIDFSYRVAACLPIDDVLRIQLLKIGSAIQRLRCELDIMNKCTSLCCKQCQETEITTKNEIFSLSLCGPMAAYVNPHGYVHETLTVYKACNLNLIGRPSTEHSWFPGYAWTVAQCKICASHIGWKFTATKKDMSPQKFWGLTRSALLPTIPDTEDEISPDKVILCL
T1 sequence (Q16531 whole entry partner): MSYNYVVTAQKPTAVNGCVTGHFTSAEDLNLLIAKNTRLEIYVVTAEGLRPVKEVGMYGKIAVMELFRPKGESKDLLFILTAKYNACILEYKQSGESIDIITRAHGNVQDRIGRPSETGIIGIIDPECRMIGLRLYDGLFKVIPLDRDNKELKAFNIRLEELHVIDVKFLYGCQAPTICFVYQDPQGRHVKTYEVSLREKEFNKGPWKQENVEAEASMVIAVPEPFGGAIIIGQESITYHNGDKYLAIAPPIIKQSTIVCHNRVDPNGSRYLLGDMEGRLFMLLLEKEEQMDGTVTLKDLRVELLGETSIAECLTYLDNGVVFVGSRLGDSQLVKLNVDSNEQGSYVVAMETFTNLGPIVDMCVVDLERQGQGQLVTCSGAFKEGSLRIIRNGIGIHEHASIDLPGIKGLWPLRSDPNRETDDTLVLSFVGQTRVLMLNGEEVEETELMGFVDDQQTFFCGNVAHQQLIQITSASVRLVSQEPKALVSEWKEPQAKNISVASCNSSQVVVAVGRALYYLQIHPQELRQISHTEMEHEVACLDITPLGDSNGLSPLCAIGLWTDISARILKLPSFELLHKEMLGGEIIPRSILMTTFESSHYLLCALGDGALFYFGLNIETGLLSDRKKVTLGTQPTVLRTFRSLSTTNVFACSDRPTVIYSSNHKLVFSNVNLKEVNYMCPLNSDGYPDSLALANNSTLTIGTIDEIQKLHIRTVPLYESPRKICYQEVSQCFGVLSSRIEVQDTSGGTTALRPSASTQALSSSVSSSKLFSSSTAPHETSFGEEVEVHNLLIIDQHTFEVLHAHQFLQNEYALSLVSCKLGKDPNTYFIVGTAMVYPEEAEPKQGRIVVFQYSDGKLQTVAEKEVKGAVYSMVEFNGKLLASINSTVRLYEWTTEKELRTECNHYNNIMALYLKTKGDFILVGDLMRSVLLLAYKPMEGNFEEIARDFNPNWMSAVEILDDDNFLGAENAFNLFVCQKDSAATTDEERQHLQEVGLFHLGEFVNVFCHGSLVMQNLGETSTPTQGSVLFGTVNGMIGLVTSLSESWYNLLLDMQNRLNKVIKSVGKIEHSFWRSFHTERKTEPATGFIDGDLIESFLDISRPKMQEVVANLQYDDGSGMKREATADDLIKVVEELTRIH
T2 sequence (Q96SW2 whole entry partner): as the sequence (Q96SW2 whole entry) above
T2 sequence (Q16531 whole entry partner): as the sequence (Q16531 whole entry partner) above
T2 sequence (Q13422 whole entry): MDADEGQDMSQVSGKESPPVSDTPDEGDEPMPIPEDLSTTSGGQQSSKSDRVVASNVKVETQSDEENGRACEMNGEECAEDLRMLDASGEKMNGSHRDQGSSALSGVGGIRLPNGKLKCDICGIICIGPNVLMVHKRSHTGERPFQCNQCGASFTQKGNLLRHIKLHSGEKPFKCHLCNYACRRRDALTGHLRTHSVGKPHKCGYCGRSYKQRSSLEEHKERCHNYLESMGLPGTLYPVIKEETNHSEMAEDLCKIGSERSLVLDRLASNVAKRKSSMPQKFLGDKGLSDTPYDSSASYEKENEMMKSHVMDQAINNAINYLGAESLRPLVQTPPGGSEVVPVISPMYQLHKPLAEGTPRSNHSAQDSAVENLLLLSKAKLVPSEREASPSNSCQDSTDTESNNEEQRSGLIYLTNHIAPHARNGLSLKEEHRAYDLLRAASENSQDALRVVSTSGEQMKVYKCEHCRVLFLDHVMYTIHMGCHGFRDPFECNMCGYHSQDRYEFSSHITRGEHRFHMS

Consider `O=C1CCC(N2Cc3cc(-c4cc(CNCCc5ccc(Cl)cc5)ccn4)ccc3C2=O)C(=O)N1` (stereo not drawn) [Example 94, 3-(5-(4-(((4-chlorophenethyl)amino)methyl)pyridin-2-yl)-1-oxoisoindolin-2-yl)piperidine-2,6-dione], for which, on Helios, half-maximal degradation (DC50) was put at 35 nM and the maximal degradation (Dmax) is 74%. Further, on Ikaros, the half-maximal degradation concentration (DC50) is greater than 10000 nM and the Dmax worked out at 11%.
On to `COc1ccc(CCNCc2ccnc(-c3ccc4c(c3)CN(C3CCC(=O)NC3=O)C4=O)c2)cc1` (stereo not drawn) [Example 95, 3-(5-(4-(((4-methoxyphenethyl)amino)methyl)pyridin-2-yl)-1-oxoisoindolin-2-yl)piperidine-2,6-dione], for which the DC50 at Helios is 34 nM; at Ikaros, greater than 10000 nM. The Dmax at Helios was 94%; on Ikaros, 17%.
For `O=C1CCC(N2Cc3cc(-c4cc(CNCCc5ccc(O)cc5)ccn4)ccc3C2=O)C(=O)N1` (stereo not drawn) [Example 96, 3-(5-(4-(((4-hydroxyphenethyl)amino)methyl)pyridin-2-yl)-1-oxoisoindolin-2-yl) piperidine-2,6-dione], in that order: 19 nM, greater than 10000 nM, 94% and 25%.
`CC(C)CCNCc1ccnc(-c2ccc3c(c2)CN(C2CCC(=O)NC2=O)C3=O)c1` (stereo not drawn) [Example 97, 3-(5-(4-((isopentylamino)methyl)pyridin-2-yl)-1-oxoisoindolin-2-yl)piperidine-2,6-dione]: the DC50 was 8 nM on Helios and greater than 10000 nM at Ikaros. For the same compound, the Dmax came to 90% at Helios and 11% on Ikaros.
For `O=C1CCC(N2Cc3cc(-c4cc(CNCCCc5ccccc5)ccn4)ccc3C2=O)C(=O)N1` (stereo not drawn) [Example 98, 3-(1-oxo-5-(4-(((3-phenylpropyl)amino)methyl)pyridin-2-yl)isoindolin-2-yl)piperidine-2,6-dione], the DC50 at Helios was 6 nM; on Ikaros it was greater than 10000 nM. The maximal degradation (Dmax) at Helios turned out to be 91%; at Ikaros, 8%.
For `N#CCNCc1ccnc(-c2ccc3c(c2)CN(C2CCC(=O)NC2=O)C3=O)c1` (stereo not drawn) [Example 99, 2-(((2-(2-(2,6-dioxopiperidin-3-yl)-1-oxoisoindolin-5-yl)pyridin-4-yl)methyl)amino)acetonitrile], at Helios, it took 419 nM to reach half-maximal degradation (DC50) and the Dmax was determined as 65%. Also, on Ikaros, the DC50 is greater than 10000 nM and the Dmax was 6%.
In the case of `NC(=O)CNCc1ccnc(-c2ccc3c(c2)CN(C2CCC(=O)NC2=O)C3=O)c1` (stereo not drawn) [Example 100, 2-(((2-(2-(2,6-dioxopiperidin-3-yl)-1-oxoisoindolin-5-yl)pyridin-4-yl)methyl)amino) acetamide], on Helios, the DC50 was found to be 6130 nM and the “Helios Dmax” value came to 55%. At Ikaros, the DC50 is greater than 10000 nM and the “Ikaros Dmax” value is on record as 6%.
Consider `O=C1CCC(N2Cc3cc(-c4cc(CNC5CCC(O)CC5)ccn4)ccc3C2=O)C(=O)N1` (stereo not drawn) [Example 101, 3-(5-(4-(((4-hydroxycyclohexyl)amino)methyl)pyridin-2-yl)-1-oxoisoindolin-2-yl)piperidine-2,6-dione], for which, at Helios, the DC50 is 59 nM and the Dmax stood at 89%. In addition, on Ikaros, the DC50 is greater than 10000 nM and the Dmax is 22%.
Turning to `O=C1CCC(N2Cc3cc(-c4cc(CNCCc5cccc(Cl)c5)ccn4)ccc3C2=O)C(=O)N1` (stereo not drawn) [Example 102, 3-(5-(4-(((3-chlorophenethyl)amino)methyl)pyridin-2-yl)-1-oxoisoindolin-2-yl)piperidine-2,6-dione], on Helios, the DC50 came to 11 nM and the Dmax came out at 97%. Moreover, on Ikaros, the half-maximal degradation concentration (DC50) is greater than 10000 nM and the Dmax came out at 10%.
`O=C1CCC(N2Cc3cc(-c4cc(CNCCOc5ccccc5)ccn4)ccc3C2=O)C(=O)N1` (stereo not drawn) [Example 103, 3-(1-oxo-5-(4-(((2-phenoxyethyl)amino)methyl)pyridin-2-yl)isoindolin-2-yl)piperidine-2,6-dione]: the results for the DC50 at Helios and at Ikaros were 36 nM and greater than 10000 nM, respectively. In addition, the maximal degradation (Dmax) at Helios amounted to 95%; at Ikaros, 1%.
As for `O=C1CCC(N2Cc3cc(-c4cc(CNC5CCN(Cc6ccccc6)C5)ccn4)ccc3C2=O)C(=O)N1` (stereo not drawn) [Example 104, 3-(5-(4-(((1-benzylpyrrolidin-3-yl)amino)methyl)pyridin-2-yl)-1-oxoisoindolin-2-yl) piperidine-2,6-dione], at Helios, the DC50 was greater than 10000 nM and the Dmax worked out at 44%. On Ikaros, the DC50 is greater than 10000 nM and the Dmax is 1%.
In the case of `NC(=O)CCNCc1ccnc(-c2ccc3c(c2)CN(C2CCC(=O)NC2=O)C3=O)c1` (stereo not drawn) [Example 105, 3-(((2-(2-(2,6-dioxopiperidin-3-yl)-1-oxoisoindolin-5-yl)pyridin-4-yl)methyl)amino)propanamide], the figures for the DC50 on Helios and at Ikaros were 264 nM and greater than 10000 nM, respectively. Also, the Dmax on Helios is 79%; at Ikaros it was 5%.
For `O=C1CCC(N2Cc3cc(-c4cc(CNCCc5nc6ccccc6s5)ccn4)ccc3C2=O)C(=O)N1` (stereo not drawn) [Example 106, 3-(5-(4-(((2-(benzo[d]thiazol-2-yl)ethyl)amino)methyl)pyridin-2-yl)-1-oxoisoindolin-2-yl)piperidine-2,6-dione] the same measures were 72 nM, greater than 10000 nM, 79% and 12%.
For `CN(C)C1CCC(NCc2ccnc(-c3ccc4c(c3)CN(C3CCC(=O)NC3=O)C4=O)c2)CC1` (stereo not drawn) [Example 107, 3-(5-(4-(((4-(dimethylamino)cyclohexyl)amino)methyl)pyridin-2-yl)-1-oxoisoindolin-2-yl) piperidine-2,6-dione] the same measures were 494 nM, greater than 10000 nM, 80% and 15%.
On to `O=C1CCC(N2Cc3cc(-c4cc(CNC5CCC5)ccn4)ccc3C2=O)C(=O)N1` (stereo not drawn) [Example 108, 3-(5-(4-((cyclobutylamino)methyl)pyridin-2-yl)-1-oxoisoindolin-2-yl)piperidine-2,6-dione], for which the 50% degradation concentration (DC50) is 45 nM at Helios and greater than 10000 nM at Ikaros. Also, the figures for the Dmax on Helios and at Ikaros were 84% and 15%, respectively.
For the compound `O=C1CCC(N2Cc3cc(-c4cc(CNC5CC5)ccn4)ccc3C2=O)C(=O)N1` (stereo not drawn) [Example 109, 3-(5-(4-((cyclopropylamino)methyl)pyridin-2-yl)-1-oxoisoindolin-2-yl)piperidine-2,6-dione], the values for the 50% degradation concentration (DC50) at Helios and at Ikaros were 48 nM and greater than 10000 nM, respectively. The results for the Dmax on Helios and at Ikaros were 75% and 15%, respectively.
As for `O=C1CCC(N2Cc3cc(-c4cc(CNCc5csc(-c6ccccc6)n5)ccn4)ccc3C2=O)C(=O)N1` (stereo not drawn) [Example 110, 3-(1-oxo-5-(4-((((2-phenylthiazol-4-yl)methyl)amino)methyl)pyridin-2-yl)isoindolin-2-yl)piperidine-2,6-dione], at Helios, it took 48 nM to reach half-maximal degradation (DC50) and the Dmax is 71%. On Ikaros, the half-maximal degradation concentration (DC50) was greater than 10000 nM and the Dmax stood at 7%.
In the case of `O=C1CCC(N2Cc3cc(-c4cc(CN[C@@H]5C[C@H]5c5ccccc5)ccn4)ccc3C2=O)C(=O)N1` (stereo partly drawn) [Example 111, 3-(1-oxo-5-(4-((((1R,2S)-2-phenylcyclopropyl)amino)methyl)pyridin-2-yl)isoindolin-2-yl)piperidine-2,6-dione], at Helios, the DC50 worked out at 137 nM and the Dmax was 75%. Moreover, on Ikaros, the DC50 was greater than 10000 nM and the Dmax was 10%.
For `COC(=O)CCNCc1ccnc(-c2ccc3c(c2)CN(C2CCC(=O)NC2=O)C3=O)c1` (stereo not drawn) [Example 112, methyl 3-(((2-(2-(2,6-dioxopiperidin-3-yl)-1-oxoisoindolin-5-yl)pyridin-4-yl)methyl)amino)propanoate], in that order: 921 nM, 74%, greater than 10000 nM and 2%.
In the case of `O=C1CCC(N2Cc3cc(-c4cc(CNCCCn5ccnc5)ccn4)ccc3C2=O)C(=O)N1` (stereo not drawn) [Example 113, 3-(5-(4-(((3-(1H-imidazol-1-yl)propyl)amino)methyl)pyridin-2-yl)-1-oxoisoindolin-2-yl)piperidine-2,6-dione], at Helios, the DC50 is 287 nM and the Dmax came out at 81%. Further, at Ikaros, the DC50 is greater than 10000 nM and the Dmax was determined as 8%.
For `O=C1CCC(N2Cc3cc(-c4cc(CNCCCN5CCOCC5)ccn4)ccc3C2=O)C(=O)N1` (stereo not drawn) [Example 114, 3-(5-(4-(((3-morpholinopropyl)amino)methyl)pyridin-2-yl)-1-oxoisoindolin-2-yl)piperidine-2,6-dione], the figures for the 50% degradation concentration (DC50) at Helios and on Ikaros were 63 nM and greater than 10000 nM, respectively. The maximal degradation (Dmax) at Helios came out at 83%; on Ikaros, 2%.
For `O=C1CCC(N2Cc3cc(-c4cc(CNCCCN5CCCC5=O)ccn4)ccc3C2=O)C(=O)N1` (stereo not drawn) [Example 115, 3-(1-oxo-5-(4-(((3-(2-oxopyrrolidin-1-yl)propyl)amino)methyl)pyridin-2-yl)isoindolin-2-yl)piperidine-2,6-dione] the same measures were 528 nM, greater than 10000 nM, 78% and 6%.
For `CCNCc1ccnc(-c2ccc3c(c2)CN(C2CCC(=O)NC2=O)C3=O)c1` (stereo not drawn) [Example 116, 3-(5-(4-((ethylamino)methyl)pyridin-2-yl)-1-oxoisoindolin-2-yl)piperidine-2,6-dione] the same measures were 25 nM, greater than 10000 nM, 88% and 12%.
For `CC1(C)CCCN1Cc1ccnc(-c2ccc3c(c2)CN(C2CCC(=O)NC2=O)C3=O)c1` (stereo not drawn) [Example 117, 3-(5-(4-((2,2-dimethylpyrrolidin-1-yl)methyl)pyridin-2-yl)-1-oxoisoindolin-2-yl)piperidine-2,6-dione] the same measures were 53 nM, greater than 10000 nM, 77% and 3%.
